Results as given in DBAASP.
In brackets after ≈: the same amount, converted by molar mass. Several values for one entry are separate records, joined by “and”; a condition that tells them apart may be missing. Identical values can stand only once. Each block holds one compound with its values, some of them ahead of it.

Tests used:
Test in all cases: ≥ marks a high value that may be exact or a test limit, other limits are often not marked, values filed in µg/mL are converted to µM
[1] = system: Escherichia coli ATCC 25922
[2] = system: Staphylococcus aureus ATCC 25923
[3] = system: Trichosporon beigelii KCTC 7707
[4] = system: Bacillus subtilis KCTC 1998
[5] = system: Aspergillus awamori KCTC 6915
[6] = system: Candida albicans KCTC 7270
[7] = system: Aspergillus parasiticus KCTC 6598
[8] = system: Staphylococcus epidermidis ATCC 12228
[9] = system: Pseudomonas aeruginosa ATCC 15692
[10] = system: Aspergillus fumigatus KCTC 6145
[11] = system: Listeria monocytogenes KCTC 3710
[12] = system: Aspergillus flavus KCTC 6905
[13] = system: Salmonella typhimurium KCTC 1926
[14] = system: Proteus vulgaris KCTC 2433
[15] = system: Escherichia coli ATCC 2592
[16] = system: Staphylococcus aureus ATCC 6538
[17] = system: Micrococcus luteus ATCC 9341
[18] = system: Candida albicans ATCC 36232
[19] = system: Pseudomonas aeruginosa ATCC 9027
[20] = system: Staphylococcus aureus 1550
[21] = system: Staphylococcus epidermidis AB208187
[22] = system: Pseudomonas aeruginosa AB93066
[23] = system: Acinetobacter baumannii ATCC 19606
[24] = system: Pseudomonas aeruginosa 671973
[25] = system: Staphylococcus aureus P1374
[26] = system: Pseudomonas aeruginosa 5018
[27] = system: Enterococcus faecium
[28] = system: Streptococcus agalactiae
[29] = system: Staphylococcus aureus AB94004
[30] = system: Bacillus subtilis AB91021
[31] = system: Escherichia coli AB94012
[32] = system: Pseudomonas aeruginosa 4007
[33] = system: Staphylococcus epidermidis AB208188
[34] = system: Acinetobacter baumannii KCTC 2508
[35] = system: Acinetobacter baumannii
[36] = system: Pseudomonas aeruginosa 3592
[37] = system: Staphylococcus aureus P1381
[38] = system: Bacillus cereus KCTC 1012
[39] = system: Staphylococcus aureus AB208193
[40] = system: Staphylococcus aureus ATCC 29213
[41] = system: Micrococcus luteus AB93113
[42] = system: Klebsiella pneumoniae KCTC 2208
[43] = system: Salmonella enterica subsp. enterica serovar Typhimurium ATCC 14028
[44] = system: Salmonella typhimurium
[45] = system: Escherichia coli HB101
[46] = system: Bacillus subtilis
[47] = system: Pseudomonas aeruginosa
[48] = system: Pseudomonas aeruginosa ATCC 27853
[49] = system: Staphylococcus aureus ATCC 29313
[50] = system: Pseudomonas aeruginosa Pa1-SA2
[51] = system: Klebsiella pneumoniae ATCC 700603
[52] = system: Pseudomonas aeruginosa PA006
[53] = system: Pseudomonas aeruginosa PAO1
[54] = system: Pseudomonas aeruginosa Pa4-SA2

SMILES: CC[C@H](C)[C@H](NC(=O)[C@H](CCCCN)NC(=O)[C@H](CCCCN)NC(=O)[C@H](C)NC(=O)[C@H](CC(C)C)NC(=O)[C@H](CCCCN)NC(=O)[C@H](CCCCN)NC(=O)[C@H](CC(C)C)NC(=O)[C@H](CCCN=C(N)N)NC(=O)[C@H](CCCCN)NC(=O)[C@H](C)N)C(=O)N[C@@H](Cc1c[nH]c2ccccc12)C(=O)N[C@@H](CCCCN)C(=O)N[C@@H](Cc1c[nH]c2ccccc12)C(=O)N[C@@H](CC(C)C)C(N)=O [AKRLKKLAKKIWKWL]
- MIC [1]: 32 µM (≈ 61.1 µg/mL)
- MIC [2]: 16 µM (≈ 30.6 µg/mL)
- MIC [3]: ≥ 128 µM
- MIC [4]: 8 µM (≈ 15.3 µg/mL)
- MIC [5]: ≥ 64 µM
- MIC [6]: 16 µM (≈ 30.6 µg/mL)
- MIC [7]: 16 µM (≈ 30.6 µg/mL)
- MIC [8]: 8 µM (≈ 15.3 µg/mL)
- MIC [9]: ≥ 32 µM
- MIC [10]: 16 µM (≈ 30.6 µg/mL)
- MIC [11]: 16 µM (≈ 30.6 µg/mL)
- MIC [12]: ≥ 64 µM
- MIC [13]: 8 µM (≈ 15.3 µg/mL)
- MIC [14]: 11.3 µM (≈ 21.6 µg/mL)

SMILES: CC(C)[C@H](NC(=O)[C@H](CCCCN)NC(=O)[C@H](CCCCN)NC(=O)[C@H](CCCCN)NC(=O)[C@H](CCCCN)NC(=O)[C@H](CCCCN)NC(=O)[C@@H](NC(=O)[C@@H](NC(=O)[C@@H](N)Cc1ccccc1)C(C)C)C(C)C)C(=O)N[C@@H](Cc1ccccc1)C(=O)O [FVVKKKKKVF]
- MIC [15]: ≥ 80 µM
- MIC [16]: > 80 µM
- MIC [17]: ≥ 80 µM
- MIC [18]: ≥ 80 µM
- MIC [19]: > 80 µM
- MIC [20]: ≥ 80 µM

Now from value to compound, other results behind:

- MIC [21]: 16.2 µM (≈ 25 µg/mL)
- MIC [2]: 4.04 µM and 3.13 µM
- MIC [22]: ≥ 64.6 µM
- MIC [23]: 3.23 µM (≈ 5 µg/mL)
- MIC [24]: 3.13 µM (≈ 4.84 µg/mL)
- MIC [25]: 16.2 µM (≈ 25 µg/mL)
- MIC [16]: 8.08 µM (≈ 12.5 µg/mL)
- MIC [26]: 12.5 µM (≈ 19.3 µg/mL)
- MIC [27]: 8.08 µM (≈ 12.5 µg/mL)
- MIC [28]: 16.2 µM (≈ 25 µg/mL)
- MIC [29]: 8.08 µM (≈ 12.5 µg/mL)
- MIC [30]: 8.08 µM (≈ 12.5 µg/mL)
- MIC [31]: ≥ 64.6 µM
- MIC [32]: 25 µM (≈ 38.6 µg/mL)
- MIC [33]: 16.2 µM (≈ 25 µg/mL)
- MIC [34]: 3.13 µM and 6.25 µM
- MIC [35]: 4.14 µM and 3.13 µM and 6.25 µM
- MIC [36]: 6.25 µM (≈ 9.66 µg/mL)
- MIC [37]: 8.08 µM (≈ 12.5 µg/mL)
- MIC [19]: > 64.6 µM
- MIC [11]: 3.13 µM (≈ 4.84 µg/mL)
- MIC [38]: 12.5 µM (≈ 19.3 µg/mL)
- MIC [39]: 8.08 µM (≈ 12.5 µg/mL)
- MIC [40]: 6.25 µM (≈ 9.66 µg/mL)
- MIC [41]: 8.08 µM (≈ 12.5 µg/mL)
- MIC [42]: 12.5 µM (≈ 19.3 µg/mL)
- MIC [43]: 3.13 µM (≈ 4.84 µg/mL)
SMILES: CC[C@H](C)[C@H](NC(=O)CN)C(=O)N[C@@H](CC(C)C)C(=O)NCC(=O)N[C@@H](CCCCN)C(=O)N[C@@H](CC(C)C)C(=O)N[C@@H](Cc1c[nH]c2ccccc12)C(=O)N[C@@H](CCC(=O)O)C(=O)NCC(=O)N[C@H](C(=O)N[C@@H](CCCCN)C(=O)N[C@@H](CO)C(=O)N[C@H](C(=O)N[C@@H](Cc1ccccc1)C(N)=O)[C@@H](C)CC)C(C)C [GILGKLWEGVKSIF]

- MIC [44]: 2.6 µM (≈ 6.7 µg/mL)
- MIC [45]: 2.6 µM (≈ 6.7 µg/mL)
- MIC [46]: 20.8 µM (≈ 53.6 µg/mL)
- MIC [47]: 7.35 µM (≈ 18.9 µg/mL)
SMILES: CC[C@H](C)[C@H](NC(=O)[C@@H](NC(=O)[C@@H]1CCCN1C(=O)[C@@H](NC(=O)[C@@H]1CCCN1C(=O)[C@H](CCCCN)NC(=O)[C@H](CCCCN)NC(=O)[C@H](CO)NC(=O)CN)C(C)C)[C@@H](C)CC)C(=O)N[C@@H](Cc1ccc(O)cc1)C(=O)N[C@H]1CSSC[C@@H](C(=O)N[C@@H](CCC(N)=O)C(=O)N[C@@H](CCCN=C(N)N)C(=O)N[C@@H](CCSC)C(=O)O)NC(=O)[C@H](CCCCN)NC(=O)CNC(=O)[C@H]([C@@H](C)O)NC(=O)[C@H](C)NC(=O)[C@H](C)NC(=O)[C@H](CCCN=C(N)N)NC(=O)[C@H](CCCN=C(N)N)NC(=O)[C@H](CC(N)=O)NC1=O [GSKKPVPIIYCNRRAATGKCQRM]

- MIC [1]: 77.1 µM (≈ 200 µg/mL)
- MIC [48]: > 197 µM
- MIC [50]: ≥ 197 µM
- MIC [51]: 308 µM (≈ 800 µg/mL)
- MIC [52]: 6.17 µM (≈ 16 µg/mL)
- MIC [53]: 197 µM (≈ 512 µg/mL)
- MIC [54]: ≥ 98.6 µM
- MIC [43]: 308 µM (≈ 800 µg/mL)
SMILES: CC[C@H](C)[C@H](NC(=O)[C@H](CCCCN)NC(=O)CNC(=O)[C@H](CCSC)NC(=O)[C@H](C)NC(=O)[C@H](Cc1cnc[nH]1)NC(=O)[C@H](C)NC(=O)[C@@H](NC(=O)[C@H](CC(C)C)NC(=O)[C@H](CCC(N)=O)NC(=O)[C@H](CCCCN)NC(=O)CNC(=O)[C@H](C)NC(=O)CNC(=O)[C@H](CCCCN)NC(=O)[C@@H](NC(=O)[C@@H](NC(=O)[C@H](CC(=O)O)NC(=O)[C@H](Cc1ccccc1)NC(=O)[C@@H](NC(=O)CN)C(C)C)[C@@H](C)CC)[C@@H](C)CC)[C@@H](C)CC)C(=O)N[C@@H](C)C(=O)N[C@@H](CCC(=O)O)C(=O)N[C@@H](CCCCN)C(=O)N[C@H](C(N)=O)C(C)C [GVFDIIKGAGKQLIAHAMGKIAEKV]
- MIC [49]: ≥ 308 µM
